Measurements taken from patent US20080293711A1 (priority 2007, published 2008).
pIC50: −log10 of the molar value.

Columns and labels:
[1] = tested on: T-tropic HIV; assay: Phenoscreen assay: inhibition of cellular entry of HIV (luciferase-tagged test vector, target host cells); assay type: cell-based; settings: Human immunodeficiency virus 1, read-out: IC50 value for viral entry inhibition
Method: A selected set of compounds are tested for their ability to inhibit the cellular entry of T-tropic HIV. The assay for this inhibition was carried out by Monogram Biosciences, Inc. using their well established Phenoscreen™ assay. Briefly, HIV strains of interest are tagged with a luciferase indicator gene to create an appropriate test vector. The test vector is amplified through transfection and the resulting virus is incubated in the presence of target host cells where intracellular florescence activity then becomes a measure of infection. Amplified virus is exposed to target host cells in the presence of a range of test drug concentrations to determine IC50 measurements of entry inhibition. A modification of this test is further reapplied as a novel drug assay used in partnership with a number of pharmaceutical companies to test the effectiveness of novel entry inhibitors that target specific chemokines. It can used to detect activity against T-tropic, M-tropic, and dual-tropic viruses and Monogram Biosciences has a large bank of over 10,000 different virus strains to ultimately assess the range of applicability of our chemokine modulators. Certain compounds are tested to establish efficacy in a number of viral strains.

[2] = in vivo; cited from earlier work

| Compound | pIC50 [1] | side effect in clinical study [2] |
| --- | --- | --- |
| O=C(NCc1ccccc1)c1ccc(C(=O)NNc2ccccc2)cc1 | ≥ 5.00 |  |
| O=C(NNc1ccc(C(F)(F)F)cc1)c1ccc(CNCc2ccccc2)cc1 [AA, 4-((benzylamino)methyl)-N′-(4-(trifluoromethyl)phenyl)benzohydrazide] | ≥ 5.00 |  |
| C[C@H](NC(=O)NCc1ccc(C(=O)NNc2ccccc2)cc1)c1cccc2ccccc12 [BE, (S)-4-((3-(1-(naphthalen-1-yl)ethyl)ureido)methyl)-N′-phenylbenzohydrazide] | ≥ 5.00 |  |
| O=C(NCc1ccc(C(=O)N(Cc2ccccc2)N2CCOCC2)cc1)c1cccs1 [A, N-(4-(benzyl(morpholino)carbamoyl)benzyl)thiophene-2-carboxamide] | ≥ 5.00 |  |
| N#Cc1ccc(NNC(=O)c2ccc(CNCc3ccccc3)cc2)cc1 [AB, 4-((benzylamino)methyl)-N′-(4-cyanophenyl)benzohydrazide] | ≥ 5.00 |  |
| O=C(NNc1ccccc1)c1ccc(CNCc2ccccn2)cc1 [AL, N′-phenyl-4-((pyridin-2-ylmethylamino)methyl)benzohydrazide] | ≥ 5.00 |  |
| O=C(NNc1ccccc1)c1ccc(CNCc2ccccc2)cc1 [Z, 4-((benzylamino)methyl)-N′-phenylbenzohydrazide] | ≥ 5.00 |  |
| c1cc(CN2CCCNCCNCCCNCC2)ccc1CN1CCCNCCNCCCNCC1 [AMD3100] |  | cardiac-related side effect |
| O=C(NCc1ccccn1)c1ccc(C(=O)NNc2ccccc2)cc1 [AO, 4-(2-phenylhydrazinecarbonyl)-N-(pyridin-2-ylmethyl)benzamide] | ≥ 5.00 |  |
| O=C(NNc1ccc(F)cc1F)c1ccc(CNCc2ccccc2)cc1 [AF, 4-((benzylamino)methyl)-N1′-(2,4-difluorophenyl)benzohydrazide] | ≥ 5.00 |  |
